Data taken from patent US4268630A, “Microbiological production of ketones from C3 -C6 alkanes” (priority 1979, dated 1981).
Where two headings read alike, the source gives them in different places.

Tests used:
[1] = tested on: secondary alcohol dehydrogenase; test: Activity of purified yeast-derived secondary alcohol dehydrogenase; format: biochemical, Pichia sp. NRRL Y-11,328; conditions: purified enzyme
[2] = tested on: cell-free extracts of strain ATCC 21439; conditions: fluorescence spectrophotometry
Description: The reaction mixtures 3 ml (1.0 mg protein) were incubated at 30°
C. for 10 min. (exp. 1) and for 20 min. (exp. 2) in the presence of 1.0
^(a) Determined gas chromatographically.
^(b) Determined fluorescence spectrophotometrically. Endogenous
consumption of NAD was corrected.

[3] = tested on: cell-free secondary alcohol dehydrogenase (SADH) system; test: Cofactor requirement of cell-free soluble extracts oxidizing 2-butanol; format: biochemical
Description: To prepare the cell-free secondary alcohol dehydrogenase (SADH) system, the washed cells were disrupted with a Wave Energy Ultrasonic Oscillator, Model W201 (Wave Energy System, Inc., Newtown, Pa.) and centrifuged at 20,000× g. for 30 minutes. […] The enzyme activity was measured with a fluorescence spectrophotometer (Perkin Elmer, Model MPF 44A) by following the formation of reduced NAD (EX 340 nm, Em 460 nm). The formation of reduced NAD was also followed with an absorption spectrophotometer at 340 nm. The assay system (3 ml.) contained: potassium phosphate buffer pH 7.0; 150 μmol.; NAD 1 μmol.; a given amount of enzyme preparation; and secondary alcohol 10 μmol. The reaction was started by the addition of substrate. One unit of enzyme activity represents the reduction of one μmole NAD per minute. Protein concentrations were determined by the Lowry method (J. Biol. Chem., 193: 255-275 (1951)).

[4] = tested on: Methylococcus capsulatus Texas (ATCC 19069); test: Oxidation of n-alkanes to methyl ketones by resting cell suspension; format: cell-based; conditions: cell suspension grown on methane
Description: (§1) The pH of the nutrient medium was adjusted to 7.0 by the addition of acid or base and 50 ml. samples of the nutrient medium were charged into a plurality of 300 ml. shaker flasks. The shaker flasks were inoculated with an inoculating loop of cells from an agar plate containing homogeneous colonies of the microorganisms on the plate (the purity of the isolates was confirmed by microscopic examination). The isolates had been maintained on methanol (0.4% V/V) agar plates or on agar plates under an atmosphere of methane and air having a 1:1 V/V gas ratio which had been transferred every two weeks. For growth on methanol, the medium was supplemented with 0.4% methanol. For growth on methane, the gaseous phase of the inoculated flasks was replaced with a gas mixture comprised on methane and air having a ratio of 1:1 on a V/V basis. The inoculated flasks were sealed air-tight and were incubated on a rotary shaker of orbital radius 2.5 cm. at 250 rpm and at 30° C. for two days until turbidity in the medium had developed. The cells were harvested by centrifugation at 10,000×g. at 4° C. for 30 minutes. The cell pellet was washed twice with a 0.05 M phosphate buffer at a pH of 7.0 (containing 0.02 M MgCl2). The washed cells were then suspended in a 0.05 M phosphate buffer at pH 7.0.
A 0.5 ml. sample of each washed cell suspension (2 mg. cells) was put into 10 ml. vials at 4° C. which were sealed with a rubber cap. The gaseous phase of the vials was removed with vacuum and then was replaced with a gas mixture of the substrate reactant (i.e., alkane or secondary alcohol) and oxygen at a 1:1 V/V ratio. (In the case of a liquid substrate, i.e., secondary alcohol, 10 μl of the substrate was put in the 10 ml. vials). […] Samples of product (1-3 μl) were withdrawn periodically with a microsyringe and the products were analyzed by gas chromatography (ionization flame detector column).

[5] = tested on: particulate P(40) fraction of Methylobacterium sp. (CRL-26, NRRL-B-11,222); test: Hydroxylation of n-alkanes to secondary alcohols by particulate P(40) fraction; format: biochemical
Description: (§2) Both cell suspensions (particulate fraction) and cell-free particulate fraction of methane-grown methylotroph microorganisms are capable of catalyzing the conversion of C3 -C6 n-alkanes to the corresponding alcohols including secondary alcohols. The conditions for preparing the cell suspensions or the cell-free particulate fractions from methane-grown methylotroph microorganisms is the same as described above. The cell-free particulate fraction requires the presence of oxygen and NADH as an electron donor. […] Tables XVI and XVII show the conversion of C3 -C6 n-alkanes to the corresponding secondary alcohols using cell suspensions and cell-free particulate fractions, respectively, of methane-grown methylotroph microorganisms.
(§3) ^(a) Particulate P(40) fraction was prepared as follows:
(§4) Cellsuspensions at 4° C. were disintegrated through a French
(§5) Pressure cell and centrifuged at 4000 × g. for 15 min. to remove
(§6) unbroken bacteria. The supernatant solution was then centrifuged at 40,00
(§7) × g. for 30 min. at 4° C. yielding the particulate P(40) and
(§8) soluble S(40) fractions. The products were identified by gas
(§9) chromatography and cochromatography with authentic standard.

[6] = tested on: particulate P(40) fraction of Methylococcus capsulatus (Texas, ATCC 19,069); test: as above; format: biochemical
Description: as §2, §3, §4, §5, §6, §7, §8, §9

[7] = target: particulate P(40) fraction of Methylosinus sp. (CRL-15, NRRL-B-11,202) (Methylosinus trichosporium, UniProt Q50541+Q9KX50+Q9KX51); test: as above; format: biochemical
Sequence of particulate P(40) fraction of Methylosinus sp. (CRL-15, NRRL-B-11,202) (Q9KX50 40-431): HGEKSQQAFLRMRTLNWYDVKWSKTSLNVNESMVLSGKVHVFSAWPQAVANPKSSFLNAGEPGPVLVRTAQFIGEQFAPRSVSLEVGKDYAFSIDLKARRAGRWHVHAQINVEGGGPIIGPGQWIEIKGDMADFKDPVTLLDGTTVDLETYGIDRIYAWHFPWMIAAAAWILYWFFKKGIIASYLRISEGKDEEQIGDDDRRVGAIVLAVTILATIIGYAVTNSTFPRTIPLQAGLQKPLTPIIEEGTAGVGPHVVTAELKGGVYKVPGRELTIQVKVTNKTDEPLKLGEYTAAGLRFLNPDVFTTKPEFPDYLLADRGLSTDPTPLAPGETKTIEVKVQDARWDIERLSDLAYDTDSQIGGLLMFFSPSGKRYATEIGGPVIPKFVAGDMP
Sequence of particulate P(40) fraction of Methylosinus sp. (CRL-15, NRRL-B-11,202) (Q50541 1-252): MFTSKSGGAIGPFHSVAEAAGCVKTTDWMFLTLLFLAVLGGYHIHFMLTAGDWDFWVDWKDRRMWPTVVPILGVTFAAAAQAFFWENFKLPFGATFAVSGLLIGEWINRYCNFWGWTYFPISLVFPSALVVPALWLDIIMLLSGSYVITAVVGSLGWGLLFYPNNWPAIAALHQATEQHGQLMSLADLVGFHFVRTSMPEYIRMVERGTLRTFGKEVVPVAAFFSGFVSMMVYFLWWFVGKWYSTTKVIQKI
Sequence of particulate P(40) fraction of Methylosinus sp. (CRL-15, NRRL-B-11,202) (Q9KX51 1-256): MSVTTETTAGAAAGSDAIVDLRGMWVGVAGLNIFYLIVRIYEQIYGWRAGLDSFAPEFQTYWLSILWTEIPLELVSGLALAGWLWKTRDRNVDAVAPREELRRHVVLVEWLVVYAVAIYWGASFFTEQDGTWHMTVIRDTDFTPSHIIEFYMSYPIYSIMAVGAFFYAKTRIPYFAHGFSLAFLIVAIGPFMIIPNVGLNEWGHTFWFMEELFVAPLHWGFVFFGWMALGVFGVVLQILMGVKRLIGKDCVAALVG
Description: as §2, §3, §4, §5, §6, §7, §8, §9

[8] = tested on: particulate P(40) fraction of Methylosinus trichosporium (OB3b, NRRL-B-11,196); test: as above; format: biochemical
Description: as §2, §3, §4, §5, §6, §7, §8, §9

[9] = tested on: Methylosinus trichosporium OB3b (NRRL B-11,196); test: Oxidation of n-alkanes to methyl ketones by resting cell suspension; format: cell-based; conditions: cell suspension grown on methane
Description: as §1, with “The shaker flasks were inoculated with an inoculating loop of cells from an agar plate containing homogeneous colonies of the microorganisms on the plate (the purity of the isolates was confirmed by microscopic examination).” left out
(§10) A 0.5 ml. sample of each washed cell suspension (2 mg. cells) was put into 10 ml. vials at 4° C. which were sealed with a rubber cap. The gaseous phase of the vials was removed with vacuum and then was replaced with a gas mixture of the substrate reactant (i.e., alkane or secondary alcohol) and oxygen at a 1:1 V/V ratio. (In the case of a liquid substrate, i.e., secondary alcohol, 10 μl of the substrate was put in the 10 ml. vials). The vials were then incubated at 30° C. on a rotary shaker at 300 rpm. Samples of product (1-3 μl) were withdrawn periodically with a microsyringe and the products were analyzed by gas chromatography (ionization flame detector column).

[10] = tested on: Methylobacter capsulatus Y (NRRL B-11,201); test: as above; format: cell-based; conditions: cell suspension grown on methane
Description: as §1, with “The shaker flasks were inoculated with an inoculating loop of cells from an agar plate containing homogeneous colonies of the microorganisms on the plate (the purity of the isolates was confirmed by microscopic examination).” left out
as §10

[11] = tested on: Methylosinus sporium 5 (NRRL B-11,197); test: as above; format: cell-based; conditions: cell suspension grown on methane
Description: as §1, with “The shaker flasks were inoculated with an inoculating loop of cells from an agar plate containing homogeneous colonies of the microorganisms on the plate (the purity of the isolates was confirmed by microscopic examination).” left out
as §10

[12] = tested on: Methylocystis parvus OBBP (NRRL B-11,198); test: as above; format: cell-based; conditions: cell suspension grown on methane
Description: as §1, with “The shaker flasks were inoculated with an inoculating loop of cells from an agar plate containing homogeneous colonies of the microorganisms on the plate (the purity of the isolates was confirmed by microscopic examination).” left out
as §10

[13] = tested on: Methylomonas albus BG8 (NRRL B-11,200); test: as above; format: cell-based; conditions: cell suspension grown on methane
Description: as §1, with “The shaker flasks were inoculated with an inoculating loop of cells from an agar plate containing homogeneous colonies of the microorganisms on the plate (the purity of the isolates was confirmed by microscopic examination).” left out
as §10

[14] = tested on: Methylomonas methanica SI (NRRL B-11,199); test: as above; format: cell-based; conditions: cell suspension grown on methane
Description: as §1, with “The shaker flasks were inoculated with an inoculating loop of cells from an agar plate containing homogeneous colonies of the microorganisms on the plate (the purity of the isolates was confirmed by microscopic examination).” left out
as §10

[15] = tested on: Methylobacterium organophilum XX; test: as above; format: cell-based; conditions: cell suspension grown on methane
Description: as §1, with “The shaker flasks were inoculated with an inoculating loop of cells from an agar plate containing homogeneous colonies of the microorganisms on the plate (the purity of the isolates was confirmed by microscopic examination).” left out
as §10

[16] = tested on: Methylosinus trichosporium OB3b NRRL B-11,196; test: Conversion of n-alkanes to oxidation products by cell suspensions; format: cell-based; conditions: methane-grown cell suspension, pH 7.0
Description: (§11) ^(a) Cell-suspensions of methanegrown methylotroph microorganisms
(§12) indicated in 0.15 M phosphate buffer, pH 7.0 incubated in the alkanes as
(§13) indicated at 3° C. The oxidation products were determined by g.l.c

[17] = tested on: Methylococcus capsulatus (Texas, ATCC 19,069); test: Conversion of n-alkanes to secondary alcohols by cell suspensions; format: cell-based; conditions: growth substrate Methane
Description: as §2

[18] = tested on: Methylobacterium sp. (CRL-26, NRRL-B-11,208); test: as above; format: cell-based; conditions: growth substrate Methane
Description: as §2

[19] = tested on: Methylobacter capsulatus (Y, NRRL-B-11,201); test: as above; format: cell-based; conditions: growth substrate Methane
Description: as §2

[20] = tested on: Methylosinus trichosporium (OB3b, NRRL-B-11,196); test: as above; format: cell-based; conditions: growth substrate Methane
Description: as §2

[21] = tested on: Methylomonas sp. (CRL-17, NRRL-B-11,209); test: as above; format: cell-based; conditions: growth substrate Methane
Description: as §2

[22] = tested on: Methylosinus sp. (CRL-15, NRRL-B-11,202); test: as above; format: cell-based; conditions: growth substrate Methane
Description: as §2

[23] = tested on: Methylococcus capsulatus CRL M1 NRRL B-11,219; test: Conversion of n-alkanes to oxidation products by cell suspensions; format: cell-based; conditions: methane-grown cell suspension, pH 7.0
Description: as §11, §12, §13

SMILES: NC(=O)c1ccc[n+]([C@@H]2O[C@H](COP(=O)([O-])OP(=O)(O)OC[C@H]3O[C@@H](n4cnc5c(N)ncnc54)[C@H](O)[C@@H]3O)[C@@H](O)[C@H]2O)c1 [NAD, Nicotinamide adenine dinucleotide]
- ability to act as electron acceptor/carrier [1]: required
- NAD Consumed ([2]; Experiment 1: 10 min): 270 nmol
- NAD Consumed ([2]; Experiment 2: 20 min): 540 nmol
- effectiveness as cofactor for oxidation of 2-butanol [3]: required

SMILES: CCC [n-Propane, n-propane]
- Conversion Rates, n-alkane to methyl ketone [4]: 1.2 μmoles/hr/mg protein
- Conversion Rate, n-alkane to secondary alcohol [5]: 1.0 μmoles/hr/2.0mg. of protein
- Conversion Rate, n-alkane to secondary alcohol [6]: 1.2 μmoles/hr/2.0mg. of protein
- Conversion Rate, n-alkane to secondary alcohol [7]: 1.5 μmoles/hr/2.0mg. of protein
- Conversion Rate, n-alkane to secondary alcohol [8]: 1.32 μmoles/hr/2.0mg. of protein
- Conversion Rates, n-alkane to methyl ketone [9]: 1.5 μmoles/hr/mg protein
- Conversion Rates, n-alkane to methyl ketone [10]: 1.6 μmoles/hr/mg protein
- Conversion Rates, n-alkane to methyl ketone [11]: 2.1 μmoles/hr/mg protein
- Conversion Rates, n-alkane to methyl ketone [12]: 1.8 μmoles/hr/mg protein
- Conversion Rates, n-alkane to methyl ketone [13]: 2.7 μmoles/hr/mg protein
- Conversion Rates, n-alkane to methyl ketone [14]: 2.5 μmoles/hr/mg protein
- Conversion Rates, n-alkane to methyl ketone [15]: 2.8 μmoles/hr/mg protein
- Conversion Rate to product 1-Propanol [16]: 0.4 μmoles/hr./mg./protein
- Conversion Rate to product 2-Propanol [16]: 0.6 μmoles/hr./mg./protein
- Conversion Rate to product Acetone [16]: 0.2 μmoles/hr./mg./protein
- Conversion Rate to product Propanol [16]: 0.1 μmoles/hr./mg./protein
- Conversion Rate, n-alkane to secondary alcohol [17]: 1.1 μmoles/hr/^5 mg. protein
- Conversion Rate, n-alkane to secondary alcohol [18]: 1.4 μmoles/hr/^5 mg. protein
- Conversion Rate, n-alkane to secondary alcohol [19]: 0.20 μmoles/hr/^5 mg. protein
- Conversion Rate, n-alkane to secondary alcohol [20]: 2.5 μmoles/hr/^5 mg. protein
- Conversion Rate, n-alkane to secondary alcohol [21]: 1.6 μmoles/hr/^5 mg. protein
- Conversion Rate, n-alkane to secondary alcohol [22]: 2.1 μmoles/hr/^5 mg. protein
- Conversion Rate to product 1-Propanol [23]: 0.5 μmoles/hr./mg./protein
- Conversion Rate to product 2-Propanol [23]: 0.7 μmoles/hr./mg./protein
- Conversion Rate to product Acetone [23]: 0.3 μmoles/hr./mg./protein
- Conversion Rate to product Propanol [23]: 0.2 μmoles/hr./mg./protein
